Results reported in ChEMBL document CHEMBL5724914, “Linking interpersonal differences in gut microbiota composition and drug biotransformation activity” (2024).
Where a SMILES comes first, the peptide text is derived from it. [ ]: non-standard residue; d: D form. pGlu = O=C1CC[C@@H](C(=O)O)N1; Thz = O=C(O)[C@@H]1CSCN1

Legend:
[1] = (§1) The drug is tested on Z-021 corresponding to metagenome with ENA study accession number: PRJEB37062 and ENA sample accession number: ERS12561820 for biotransformation under anaerobic condition. The drug concentrations were measured over 9 timepoints collected between 0 and 24 hours of incubation by liquid-chromatography-coupled mass spectrometry (LC–MS); settings: 2 µM
[2] = (§2) The drug is tested on WLS-098 corresponding to human gut metagenome with ENA study accession number: PRJEB37062 and ENA sample accession number: ERS12561754 for biotransformation under anaerobic condition. The drug concentrations were measured over 9 timepoints collected between 0 and 24 hours of incubation by liquid-chromatography-coupled mass spectrometry (LC–MS); settings: 2 µM
[3] = human gut metagenome, 24 h, 2 µM
[4] = as §2, with “Z-002” for “WLS-098”, “rabbit” for “human”, “ERS12561802” for “ERS12561754”; settings: 2 µM
[5] = as §2, with “Z-019” for “WLS-098”, “rat” for “human”, “ERS12561818” for “ERS12561754”; settings: 2 µM
[6] = human gut metagenome, 24 h, 2 µM; remark: listed apart in the source
[7] = as §1, with “Z-027” for “Z-021”, “ERS12561826” for “ERS12561820”; settings: 2 µM
[8] = as §2, with “WLS-090” for “WLS-098”, “ERS12561753” for “ERS12561754”; settings: 2 µM
[9] = human gut metagenome, 24 h, 2 µM; remark: listed apart in the source
Also: call rule not given here.

Bacterial Biotransformation [1]	Bacterial Biotransformation [2]	Bacterial Biotransformation [3]	Bacterial Biotransformation [4]	Bacterial Biotransformation [5]	Bacterial Biotransformation [6]	Bacterial Biotransformation [7]	Bacterial Biotransformation [8]	Bacterial Biotransformation [9]	SMILES
Compound metabolized	Compound metabolized	Compound metabolized	Compound metabolized	Compound NOT metabolized	Compound metabolized	Compound metabolized	Compound metabolized	Compound metabolized	CCCc1nc2c(C)cc(-c3nc4ccccc4n3C)cc2n1Cc1ccc(-c2ccccc2C(=O)O)cc1
Compound metabolized	Compound metabolized	Compound metabolized	Compound NOT metabolized	Compound NOT metabolized	Compound metabolized	Compound NOT metabolized	Compound metabolized	Compound metabolized	CCCCC(=O)N(Cc1ccc(-c2ccccc2-c2nnn[nH]2)cc1)[C@H](C(=O)O)C(C)C
Compound NOT metabolized	Compound NOT metabolized	Compound NOT metabolized	Compound NOT metabolized	Compound NOT metabolized	Compound NOT metabolized	Compound NOT metabolized	Compound NOT metabolized	Compound NOT metabolized	Cc1cc2c(cc1S(N)(=O)=O)S(=O)(=O)CCC2
Compound NOT metabolized	Compound NOT metabolized	Compound NOT metabolized	Compound NOT metabolized	Compound NOT metabolized	Compound metabolized	Compound NOT metabolized	Compound metabolized	Compound NOT metabolized	CN1CCc2c(c3ccccc3n2Cc2ccccc2)C1.CN1CCc2c(c3ccccc3n2Cc2ccccc2)C1.O=S(=O)(O)c1cccc2c(S(=O)(=O)O)cccc12
Compound NOT metabolized	Compound metabolized	Compound metabolized	Compound metabolized	Compound NOT metabolized	Compound NOT metabolized	Compound NOT metabolized	Compound metabolized	Compound metabolized	COc1ccc(CCN(C)CCCC(C#N)(c2ccc(OC)c(OC)c2)C(C)C)cc1OC (centres undefined)
Compound metabolized	Compound metabolized	Compound NOT metabolized	Compound metabolized	Compound NOT metabolized	Compound metabolized	Compound NOT metabolized	Compound metabolized	Compound metabolized	CN1CC(=O)N2[C@H](c3ccc4c(c3)OCO4)c3[nH]c4ccccc4c3C[C@@H]2C1=O
Compound NOT metabolized	Compound metabolized	Compound NOT metabolized	Compound metabolized	Compound NOT metabolized	Compound NOT metabolized	Compound NOT metabolized	Compound metabolized	Compound metabolized	COc1cc2nc(N(C)CCCNC(=O)C3CCCO3)nc(N)c2cc1OC (centres undefined) [ALFUZOSIN]
Compound NOT metabolized	Compound NOT metabolized	Compound NOT metabolized	Compound NOT metabolized	Compound NOT metabolized	Compound NOT metabolized	Compound NOT metabolized	Compound NOT metabolized	Compound NOT metabolized	NC12CC3CC(CC(C3)C1)C2 [AMANTADINE]
Compound metabolized	Compound metabolized	Compound NOT metabolized	Compound metabolized	Compound NOT metabolized	Compound metabolized	Compound NOT metabolized	Compound metabolized	Compound NOT metabolized	CC(C)(C#N)c1cc(Cn2cncn2)cc(C(C)(C)C#N)c1 [ANASTROZOLE]
Compound metabolized	Compound metabolized	Compound metabolized	Compound metabolized	Compound NOT metabolized	Compound metabolized	Compound NOT metabolized	Compound metabolized	Compound metabolized	CC(=O)OCC(=O)[C@@]1(O)[C@@H](C)C[C@H]2[C@@H]3CCC4=CC(=O)C=C[C@]4(C)[C@@]3(F)[C@@H](O)C[C@@]21C [BETAMETHASONE ACETATE]
Compound NOT metabolized	–	–	Compound NOT metabolized	Compound NOT metabolized	Compound NOT metabolized	Compound NOT metabolized	–	–	CCCCCCOC(=O)/N=C(/N)c1ccc(NCc2nc3cc(C(=O)N(CCC(=O)OCC)c4ccccn4)ccc3n2C)cc1.CS(=O)(=O)O [DABIGATRAN ETEXILATE MESYLATE]
Compound metabolized	Compound NOT metabolized	Compound NOT metabolized	Compound metabolized	Compound NOT metabolized	Compound NOT metabolized	Compound metabolized	–	Compound NOT metabolized	C[C@@H]1C[C@H]2[C@@H]3CCC4=CC(=O)C=C[C@]4(C)[C@@]3(F)[C@@H](O)C[C@]2(C)[C@@]1(O)C(=O)CO [DEXAMETHASONE]
–	–	Compound metabolized	Compound metabolized	Compound NOT metabolized	Compound metabolized	Compound NOT metabolized	–	Compound metabolized	c1ccc([C@H]2CN3CCSC3=N2)cc1 [LEVAMISOLE]
–	Compound metabolized	Compound metabolized	Compound metabolized	Compound metabolized	Compound metabolized	Compound metabolized	Compound metabolized	Compound metabolized	C#C[C@]1(O)CC[C@H]2[C@@H]3CCC4=CC(=O)CC[C@@H]4[C@H]3CC[C@@]21CC [LEVONORGESTREL]
–	Compound NOT metabolized	Compound NOT metabolized	Compound NOT metabolized	Compound NOT metabolized	Compound NOT metabolized	Compound NOT metabolized	Compound NOT metabolized	–	O=C1CC[C@@H](C(=O)N2CSC[C@H]2C(=O)O)N1 [PIDOTIMOD] ([pGlu]-[Thz]-OH)

SMILES	Bacterial Biotransformation [1]	Bacterial Biotransformation [2]	Bacterial Biotransformation [3]	Bacterial Biotransformation [4]	Bacterial Biotransformation [5]	Bacterial Biotransformation [6]	Bacterial Biotransformation [7]	Bacterial Biotransformation [8]	Bacterial Biotransformation [9]
CCC(COC(=O)c1cc(OC)c(OC)c(OC)c1)(c1ccccc1)N(C)C.O=C(O)/C=C\C(=O)O (centres undefined)	Compound metabolized	Compound NOT metabolized	Compound NOT metabolized	Compound NOT metabolized	Compound NOT metabolized	Compound NOT metabolized	Compound NOT metabolized	Compound NOT metabolized	Compound metabolized
O=P(O)(O)O.c1ccc(CN(CC2=NCCN2)c2ccccc2)cc1 [ANTAZOLINE PHOSPHATE]	Compound NOT metabolized	Compound metabolized	Compound NOT metabolized	Compound metabolized	Compound NOT metabolized	Compound NOT metabolized	Compound NOT metabolized	Compound metabolized	Compound NOT metabolized
CN1CCC(=C2c3ccccc3CCc3cccnc32)CC1.O=C(O)/C=C\C(=O)O.O=C(O)/C=C\C(=O)O [AZATADINE MALEATE]	Compound NOT metabolized	Compound NOT metabolized	Compound NOT metabolized	Compound NOT metabolized	Compound NOT metabolized	Compound NOT metabolized	Compound NOT metabolized	Compound NOT metabolized	Compound NOT metabolized
OCCN1CCN(CCCN2c3ccccc3Sc3ccc(C(F)(F)F)cc32)CC1 [FLUPHENAZINE]	Compound metabolized	Compound NOT metabolized	Compound metabolized	Compound metabolized	–	Compound metabolized	Compound NOT metabolized	Compound metabolized	Compound metabolized
